# How the values were obtained:
# [1] = test system: human cord blood CD34+ stem cells; test: Hematopoietic stem cell colony formation assay; format: cell-based
# Description: Fourteen-day colony formation assays were conducted as described by us[39], using human cord blood CD34+ stem cells (AllCells Inc.), using MethoCultExpress™ colony growth media (StemCell Technologies Inc.), performed in replicates of N = 2.
# [2] = test system: over 400 different protein kinases and 20 phosphatases; test: Kinase and phosphatase inhibition, three in vitro assay systems; format: biochemical
# Description: Initial assays were performed with PC3 and PC3-M cells (PC3 cell data not shown). However, as these studies yielded similar findings, subsequent screening assays utilized only PC3-M cells. In designing chemical synthetic routes, priority was given to efficacy and toxicity parameters. Additional design features were also included in our chemical […]
# toxicity parameters. These additional design features included removal of fragments that mediated genistein binding to the estrogen receptor (ER), as determined by ER-genistein 3D x-ray crystal structures (Protein Data Base IDs:1X7R and 1X7J, for crystal structures of ERα and ERβ with bound genistein, respectively). These features also included removal of chemical fragments that are considered to increase susceptibility to rapid metabolism, especially that by the cytochrome P450 (CYP) pathway. The final feature involved incorporation of chemical characteristics previously shown to be associated with effective drugs and which together generally impart more favorable pharmacologic properties, including those described by Lipinski […]
# Supplementary Note 2. […] Three […]
# different assays systems were employed.
# Kinase assay system #1. The KINOMEscan™ assay (Ambit Biosciences). This assay evaluates 442 kinases, including 400 distinct parental kinases plus mutants known to alter activity or responsiveness. […]
# [3] = molecular target: T1, General transcription factor II-I (Homo sapiens, UniProt P78347); test: ProtoArray binding, General transcription factor II-I; details: 10 fold excess free KBU2046
# T1 construct: purchased Invitrogen
# T1 sequence (P78347 whole entry): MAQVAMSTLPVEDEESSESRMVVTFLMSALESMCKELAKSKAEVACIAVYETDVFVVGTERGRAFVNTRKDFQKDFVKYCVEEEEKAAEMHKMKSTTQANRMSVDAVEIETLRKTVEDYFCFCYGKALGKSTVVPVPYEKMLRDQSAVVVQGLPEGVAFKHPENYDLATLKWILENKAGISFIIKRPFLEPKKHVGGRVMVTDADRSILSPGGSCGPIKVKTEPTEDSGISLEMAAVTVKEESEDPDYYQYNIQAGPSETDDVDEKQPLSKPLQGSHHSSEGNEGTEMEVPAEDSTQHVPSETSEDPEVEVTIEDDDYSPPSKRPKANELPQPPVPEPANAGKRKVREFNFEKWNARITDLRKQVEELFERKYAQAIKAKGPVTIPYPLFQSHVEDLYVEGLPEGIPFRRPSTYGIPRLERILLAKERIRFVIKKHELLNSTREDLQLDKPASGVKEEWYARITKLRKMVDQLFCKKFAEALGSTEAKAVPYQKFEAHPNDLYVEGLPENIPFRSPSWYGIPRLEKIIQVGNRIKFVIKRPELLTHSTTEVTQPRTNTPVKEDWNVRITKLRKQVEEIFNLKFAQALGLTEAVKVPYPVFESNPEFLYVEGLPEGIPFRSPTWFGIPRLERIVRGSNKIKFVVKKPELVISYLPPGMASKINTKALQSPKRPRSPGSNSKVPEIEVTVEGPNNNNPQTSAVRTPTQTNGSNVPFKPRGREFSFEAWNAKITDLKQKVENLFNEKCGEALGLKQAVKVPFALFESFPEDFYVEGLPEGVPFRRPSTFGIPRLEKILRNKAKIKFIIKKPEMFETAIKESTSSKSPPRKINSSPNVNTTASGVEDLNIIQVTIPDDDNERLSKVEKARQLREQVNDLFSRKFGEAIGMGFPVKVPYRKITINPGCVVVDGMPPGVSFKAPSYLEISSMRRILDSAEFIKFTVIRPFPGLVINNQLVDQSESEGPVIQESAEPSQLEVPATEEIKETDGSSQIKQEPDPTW
# Description: (§1) The ProtoArray® assay, using the Human Protein Microarray platform, was performed by Invitrogen. […]
# (§2) (d) Protein array hybridization. KBU2046-biotin was hybridized to ProtoArray® Human Protein Microarray’s at 0.5 and 10 µM with and without 10 fold excess free KBU2046. We first sought proteins that met the following criteria, and did so at both 0.5 and 10 µM concentrations of KBU2046-biotin (in the absence of free KBU2046): Z-Score greater than 2.5, Z-Factor greater than 0.5, CI P-value less than 0.05, negative control value <2,000 (relative fluorescence units; RFUs), and a signal/negative control signal of >10 and >5 for 10 µM and 0.5 µM conditions, respectively. This yielded 3 proteins, shown in table, for an initial hit rate of 0.03%. We then required free KBU2046 to inhibit binding by >75%. […]
# There were two additional notable findings from protein array studies. First, the positive control used in protein arrays was staurosporine. Staurosporine is similar to genistein in that both are small compound natural products that are broad spectrum kinase inhibitors. In contrast to the lack of binding by KBU2046-biotin, staurosporine bound to 214 proteins at levels that were >/= 10 fold above that of background. The vast majority of these proteins were kinases. Second, both HSP90β and CDC37 were present on the protein arrays, and were not bound by KBU2046-
# [4] = molecular target: T2, cysteine and glycine-rich protein 1 (Homo sapiens, UniProt P21291); test: ProtoArray binding, cysteine and glycine-rich protein 1; details: 10 fold excess free KBU2046
# T2 construct: purchased Invitrogen
# T2 sequence (P21291 whole entry): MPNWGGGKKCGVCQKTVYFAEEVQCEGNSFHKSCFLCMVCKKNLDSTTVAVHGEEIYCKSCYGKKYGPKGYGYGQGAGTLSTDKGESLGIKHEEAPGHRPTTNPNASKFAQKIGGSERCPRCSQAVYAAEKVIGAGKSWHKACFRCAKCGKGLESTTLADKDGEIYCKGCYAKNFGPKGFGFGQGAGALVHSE
# Description: as §1
# as §2, with “followed by detection with FITC-streptavidin, and visualization by fluorescent microscopy (with equal exposure times). (d)” for “(d)”, “>75%. Of the two remaining candidates, we eliminated isovaleryl-CoA dehydrogenase (ICD). Its binding signal doubled on” for “>75%.”
# suspected non-specific binding by the biotin-linker moiety. We deemed cysteine and glycine-rich protein 1 (CSRP1) our top priority protein, though its binding characteristics at 10 µM + free KBU2046 were similar to ICD, albeit not as extreme. We thus evaluated whether KBU2046- […]
# There were two additional notable findings from protein array studies. […]
# RAF1 = RAF1 protein expression, western blot; format: cell-based, human; details: in cells
# Description: Fig. 6 KBU2046-mediated changes in the signature of client proteins bound to the HSP90β/CDC37 heterocomplex mediate effects upon cell motility. a LUMIER assay. HEK293T cells were transfected with 1 of 420 different protein kinases, treated with 10 µM KBU2046 (N = 5 replicates) or vehicle control (N = 5) for 3 days, and LUMIER assays performed. The N = 17 kinases that gave significant findings (Student’s t-test <0.05) in the same direction in each of two separate experiments are depicted. […] All experiments were repeated at separate times at least once, with similar results
# Western blots were performed as described by us[32]. All western blots were repeated at least once. Uncropped scans of the most important blots are depicted in Supplementary Fig. 19.
compound,measurement,setting,value
"O=C1c2ccccc2OCC1c1ccc(F)cc1 (racemic) [KBU2046, (±)-3(4-fluorophenyl)chroman-4-one]",toxicity to human bone marrow stem cells,[1]; 14 days,not toxic
same,toxicity to stem cells,[1]; up to 40 micromolar for 14 days,no toxicity
same,inhibition of protein kinases and phosphatases,[2],failure to inhibit
same,% inhibition by competitor,[3]; 0.5 uM KBU2046-biotin,64%
same,% inhibition by competitor,[3]; 10 uM KBU2046-biotin,43%
same,% inhibition by competitor,[4]; 0.5 uM KBU2046-biotin,79%
same,% inhibition by competitor,[4]; 10 uM KBU2046-biotin,33%
same,RAF1 protein expression levels,RAF1,did not alter RAF1 protein expression levels
